Patent US8334301B2, “5-Membered heterocyclic compound” (Takeda Pharmaceutical Company Limited, priority 2007, dated 2012)
Structures can show the parent of a compound that is named as a salt.

Biological target: T1, H+,K+-ATPase (Sus scrofa, UniProt P19156)
T1 construct: a microsomal fraction of gastric mucosa was prepared from the stomach of swine; from tissue; host or cells: swine stomach, gastric mucosa microsomal fraction
Assay: Proton Potassium-Adenosine Triphosphatase (H+,K+-ATPase) inhibitory activity test
Format: biochemical
Conditions: microsomal fraction of swine gastric mucosa; pH 6.5, 37° C., 10 mmol/L potassium chloride; malachite green colorimetry at 610 nm
Method: Proton Potassium-Adenosine Triphosphatase (H^+,K^+-ATPase) Inhibitory Activity Test
According to the method of Wallmark et al. [Biochim. Biophys. Acta, 728, 31 (1983)], a microsomal fraction of gastric mucosa was prepared from the stomach of swine. First, the stomach was removed, washed with tap water, and immersed in 3 mol/L sodium chloride, and the surface of the mucosa was wiped with a paper towel. The gastric mucosa was removed, minced, and homogenized in a 0.25 mol/L sucrose solution (pH 6.8) containing 1 mmol/L EDTA and 10 mmol/L tris-hydrochloric acid using polytron (Kinematica). The obtained homogenate was centrifuged at 20,000×g for 30 min and the supernatant was centrifuged at 100,000×g for 90 min. The precipitate was suspended in 0.25 mol/L sucrose solution, the suspension was superimposed on a 0.25 mol/L sucrose solution containing 7.5% Ficoll, and centrifuged at 100,000×g for 5 hr. The fraction containing the interface between the both layers was recovered, and centrifugally washed with 0.25 mol/L sucrose solution.
The obtained microsomal fraction was used as an H^+/K^+-ATPase preparation.
To 50 mmol/L HEPES-tris buffer (5 mmol/L magnesium chloride, 10 mmol/L potassium chloride, 10 μmol/L valinomycin, pH=6.5, 40 μL) containing 2.5 μg/mL enzyme preparation based on the protein concentration was added a test compound (5 μL) dissolved in 10% dimethyl sulfoxide solution, and the mixture was incubated at 37° C. for 30 min. A 2 mmol/L adenosine triphosphate tris salt solution (50 mmol/L HEPES-tris buffer (5 mmol/L magnesium chloride, pH 6.5), 5 μL) was added to start an enzyme reaction. The enzyme reaction was performed at 37° C. for 20 min, and then a malachite green solution (a mixture of 0.12% malachite green sulfate (2.5 mol/L) solution, 7.5% ammonium molybdate and 11% Tween 20 at a ratio of 100:25:2, 15 μL) was added to stop the reaction. The reaction mixture was stood at room temperature for 15 min, and the resulting reaction product of inorganic phosphorus and malachite green was measured by colorimetric quantification at a wavelength of 610 nm. In addition, the amount of inorganic phosphoric acid in a reaction solution free of potassium chloride was also measured in the same manner, and the value was extracted from that in the presence of potassium chloride, whereby the H^+,K^+-ATPase activity was measured. The inhibitory rate (%) was determined from the activity value of the control and that at each concentration of the test compound, and 50% inhibitory concentration (IC50) to H^+,K^+-ATPase was determined.

T1 sequence (P19156 2-1034 limits assumed): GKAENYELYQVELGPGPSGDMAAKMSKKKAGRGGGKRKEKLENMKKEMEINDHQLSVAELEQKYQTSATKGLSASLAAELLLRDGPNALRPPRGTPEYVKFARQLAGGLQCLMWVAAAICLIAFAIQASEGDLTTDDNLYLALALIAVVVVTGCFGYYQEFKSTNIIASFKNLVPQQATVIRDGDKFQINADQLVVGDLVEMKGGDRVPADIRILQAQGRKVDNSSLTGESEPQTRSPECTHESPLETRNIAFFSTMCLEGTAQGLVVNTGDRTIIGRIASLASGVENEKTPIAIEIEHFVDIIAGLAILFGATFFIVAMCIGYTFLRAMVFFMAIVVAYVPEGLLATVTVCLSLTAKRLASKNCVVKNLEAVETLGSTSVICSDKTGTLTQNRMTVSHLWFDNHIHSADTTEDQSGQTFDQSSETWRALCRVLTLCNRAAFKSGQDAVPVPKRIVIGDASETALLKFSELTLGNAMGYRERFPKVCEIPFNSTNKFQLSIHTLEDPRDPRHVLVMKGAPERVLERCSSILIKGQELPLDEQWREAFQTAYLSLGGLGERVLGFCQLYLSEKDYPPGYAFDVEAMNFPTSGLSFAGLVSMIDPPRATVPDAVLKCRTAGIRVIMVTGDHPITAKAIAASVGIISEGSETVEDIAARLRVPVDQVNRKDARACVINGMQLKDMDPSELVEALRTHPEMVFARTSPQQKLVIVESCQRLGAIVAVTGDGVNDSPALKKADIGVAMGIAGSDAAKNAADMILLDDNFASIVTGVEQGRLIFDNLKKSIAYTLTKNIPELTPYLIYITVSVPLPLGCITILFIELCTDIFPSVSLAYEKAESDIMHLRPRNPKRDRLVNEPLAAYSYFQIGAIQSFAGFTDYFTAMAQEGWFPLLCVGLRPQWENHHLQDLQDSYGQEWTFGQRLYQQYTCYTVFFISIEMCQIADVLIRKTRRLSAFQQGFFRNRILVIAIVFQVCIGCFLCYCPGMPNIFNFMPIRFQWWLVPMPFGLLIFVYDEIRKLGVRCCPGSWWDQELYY
T1 sequence (P18434 whole entry partner): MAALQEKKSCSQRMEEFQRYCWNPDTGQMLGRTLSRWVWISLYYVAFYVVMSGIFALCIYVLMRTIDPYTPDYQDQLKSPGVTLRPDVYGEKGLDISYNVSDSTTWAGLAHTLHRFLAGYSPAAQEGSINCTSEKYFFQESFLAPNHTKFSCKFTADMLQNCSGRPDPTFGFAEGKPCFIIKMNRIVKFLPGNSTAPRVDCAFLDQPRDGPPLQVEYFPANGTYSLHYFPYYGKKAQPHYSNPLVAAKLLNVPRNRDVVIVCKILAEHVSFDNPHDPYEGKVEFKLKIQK

Structure (SMILES)	IC50 [µM]
CNCc1cn(Cc2ccc(F)cc2)c(-c2ccccc2)n1 [Example 3, 1-[1-(4-fluorobenzyl)-2-phenyl-1H-imidazol-4-yl]-N-methylmethanamine dihydrochloride]	309
CNCc1nc(-c2ccccc2)n(Cc2ccc(F)cc2)c1Cl [Example 6, 1-[5-chloro-1-(4-fluorobenzyl)-2-phenyl-1H-imidazol-4-yl]-N-methylmethanamine oxalate]	1.4
CNCc1cc(-c2ccccc2F)c(Sc2cccc(OC)c2)s1 [Example 10, 1-{4-(2-fluorophenyl)-5-[(3-methoxyphenyl)thio]-2-thienyl}-N-methylmethanamine fumarate]	0.17
CNCc1cc(-c2ccccc2F)c([S+]([O-])c2cccc(OC)c2)s1 (stereo not shown) [Example 11, 1-{4-(2-fluorophenyl)-5-[(3-methoxyphenyl)sulfinyl]-2-thienyl}-N-methylmethanamine fumarate]	0.4

Now from value to compound:

IC50 [µM]	Structure (SMILES)
2.2	CNCc1cc(-c2cccnc2F)c(Sc2nccs2)s1 [Example 18, 1-{4-(2-fluoropyridin-3-yl)-5-[(1,3-thiazol-2-yl)thio]thiophen-2-yl}-N-methylmethanamine fumarate]
0.22	CNCc1cc(-c2cccnc2F)c(Sc2ccoc2C)s1 [Example 19, 1-{4-(2-fluoropyridin-3-yl)-5-[(2-methylfuran-3-yl)thio]thiophen-2-yl}-N-methylmethanamine hydrochloride]
0.031	CNCc1cc(Sc2ccc(Cl)nc2)n(-c2ccccc2Cl)n1 [Example 27, 1-{1-(2-chlorophenyl)-5-[(6-chloropyridin-3-yl)thio]-1H-pyrazol-3-yl}-N-methylmethanamine hydrochloride]
